This note sets out measurements from US7332602B2, “Pyridyl substituted heterocycles useful for treating or preventing HCV infection” (Rigel Pharmaceuticals, Inc., priority 2002, dated 2008).

Like-named read-outs stand apart in the source and are kept apart here.

In data set [1] the test system is HCV replicon (5-2 Luc replicon-comprising cells). Briefly: HCV replicon assay (luciferase reporter). The settings on record: first symbol of the Replicon/Western cell, 5-2 Luc replicon cells, 24 hours with compound, read-out: Replicon (IC50, 50% reduction in luciferase emission). It is filed as cell-based, Hepatitis C virus. How it is done: The inhibitory activity of certain exemplary compounds of the invention was confirmed using an HCV replicon assay. The HCV replicon can include such features as the HCV IRES, the HCV 3′ untranslated region, selected HCV genes encoding HCV polypeptides, selectable markers, and a reporter gene such as luciferase, GEP, etc. In the assay, actively dividing 5-2 Luc replicon-comprising cells were seeded at a density of between about 5,000 and 7,500 cells/well onto 96 well plates (about 90 μl of cells per well) and incubated at 37° C. and 5% CO2 for 24 hours. Then, the test compound (in a volume of about 10 μl) was added at various concentrations to each well and the cells were incubated for an additional 24 hours before luciferase assay. The cells were harvested, and HCV replication or translation was monitored via a reporter assay, e.g., a luciferase reporter assay. The media was aspirated from each cell and Bright-Glo ([…].) luciferase assay reagents were added to each well according to the manufacturer's instructions. In this assay, the amount of test compound that yielded a 50% reduction in luciferase emission (IC50) was determined.

Data set [2] in a line: cytotoxicity assay (Cell Titer Glo). The settings on record: human; 48 hr with compound, ATP-dependent Cell Titer Glo; read-out: IC50 (cytotoxicity, number of viable cells). The class given is cell-based. How it is done:
Compounds 1, 3, 7, 9, 11, 13, 17, 19, 21, 27, 29, 31, 33, 35, 37, 39, 47, 49, 51, 57 and 69 were tested in a cytotoxicity assay with liver cells including an HCV replicon (5-2 Luc cells, 9-13 cells or Huh-7 cells). In the assay, cells were seeded onto 96-well plates (approx. 7500 cells/well in a volume of 90 μl) and grown for 24 hr at 37° C. On day 2, various concentrations of test compound (in a volume of 10 μl) were added to the wells and the cells were grown for an additional 48 hr at 37° C. On day 4, an ATP-dependent R-Luciferase assay (Cell Titer Glo assay) was performed to determine the number of viable cells.

Data set [3] deals with HCV proteins (HCV replication). The data set is described as follows: quantitative Western blot analysis with antibodies specific for certain HCV proteins. The settings on record: second symbol of the Replicon/Western cell, read-out: Western (IC50, 50% reduction in the amount of the specified HCV protein). The class given is cell-based, Hepatitis C virus. How it is done:
Certain exemplary compounds of the invention were also tested for their ability to inhibit HCV replication using a quantitative Western blot analysis with antibodies specific for certain HCV proteins. In this assay, the amount of test compound that yielded a 50% reduction in the amount of the specified HCV protein as compared to a control sample (IC50) was determined.
Background: Immunoblotting shows a protein as a band on a membrane.

Regarding “2,2-Dichloro-N-[5-[3-[2-chloro-6-[4-(N-2-pyridyl)pipera phenyl])5-isoxazolyl]-(3-pyridyl)] Acetamide [Compound 69]”, the IC50 in data set [1] was less than 10 µM.

With “2,2-Dichloro-N-[5-[3-[2-chloro-6-[4-(N-acetyl)piperazino]phenyl])-5-isoxazoly]-(3-pyridyl)] Acetamide [Compound 61]”, the IC50 in data set [1] is less than 10 µM.

For “2,2-Dichloro-N-[5-[3-[2-chloro-6-[4-(N-ethylcarboxamido)piperazino]phenyl])-5-isoxazolyl]-(3-pyridyl)] Acetamide [Compound 81]”, in data set [1], the IC50 is less than 10 µM.

In the case of “2,2-Dichloro-N-[5-[3-[2-chloro-6-[4-(N-tert-butoxycarbonyl)piperazino]phenyl])-5-isoxazolyl]-(3-pyridyl)] Acetamide [Compound 71]”, in data set [1], the IC50 was less than 10 µM.

For `O=C(Nc1ccnc(-c2cc(-c3c(F)cccc3Cl)no2)c1)C(Cl)Cl` [Compound 1, 2,2-Dichloro-N-[2-[3-(2-chloro-6-fluorophenyl)-5-isoxazolyl]-(4-pyridyl)] Acetamide], in data set [2], the IC50 at 48 h is not below 10 µM. In addition, in data set [1] (Hepatitis C virus), the IC50 is less than 10 µM.

Take `COc1cccc(F)c1-c1cc(-c2cc(NC(=O)C(Cl)Cl)ccn2)on1` [Compound 5, 2,2-Dichloro-N-[2-[3-(2-fluoro-6-methoxyphenyl)-5-isoxazolyl]-(4-pyridyl)] Acetamide]: the IC50 is less than 10 µM in data set [3] (Hepatitis C virus) and more than 10 µM in data set [1] (Hepatitis C virus).

Consider `O=C(Nc1cccc(-c2cc(-c3cc(Cl)nc(Cl)c3)no2)c1)C(Cl)Cl` [Compound 11, 2,2-Dichloro-N-[3-[3-[(2,6-dichloro)-4-pyridyl]-5-isoxazolyl]phenyl] Acetamide], for which the IC50 is less than 10 µM in data set [3] and more than 10 µM in data set [1].

In the case of `Cc1cccc(C)c1-c1cc(-c2cc(NC(=O)C(Cl)Cl)ccn2)on1` [Compound 19, 2,2-Dichloro-N-[2-[3-(2,6-dimethylphenyl)-5-isoxazolyl]-(4-pyridyl)] Acetamide], in data set [2], the IC50 at 48 h was more than 5 µM. Further, in data set [1] (Hepatitis C virus), the IC50 is less than 10 µM.

With `O=C(Nc1cncc(-c2cc(-c3cccc(Cl)c3Cl)no2)c1)C(Cl)Cl` [Compound 29, 2,2-Dichloro-N-[5-[3-(2,3-dichloroplhenyl)-5-isoxazolyl]-(3-pyridyl)] Acetamide], the IC50 at 48 h in data set [2] is not below 10 µM. The IC50 in data set [1] (Hepatitis C virus) was less than 10 µM.

As for `O=C(Nc1ccnc(-c2cc(-c3c(N4CCOCC4)cccc3C(F)(F)F)no2)c1)C(Cl)Cl` [Compound 31, 2,2-Dichloro-N-[2-[3-(2-morpholino-6-trifluoromethylphenyl)-5-isoxazolyl]-(4-pyridyl)] Acetamide], the IC50 at 48 h in data set [2] was not below 10 µM. Further, the IC50 in data set [1] (Hepatitis C virus) is less than 10 µM.

Regarding `Cc1cccnc1-c1cc(-c2cccc(NC(=O)C(Cl)Cl)c2)on1` [Compound 33, 2,2-Dichloro-N-[3-[3-(3-methyl-2-pyridyl)-5-isoxazolyl]phenyl] Acetamide], the IC50 at 48 h in data set [2] was not below 10 µM. Further, the IC50 in data set [1] (Hepatitis C virus) was less than 10 µM.

On to `O=C(Nc1cccc(-c2cc(-c3c(Cl)cccc3Cl)no2)n1)C(Cl)Cl` [Compound 35, 2,2-Dichloro-N[6-[3-(2,6-dichlorophenyl)-5-isoxazolyl]-(2-pyridyl)] Acetamide], for which, in data set [2], the IC50 at 48 h was not below 10 µM. In addition, the IC50 in data set [1] (Hepatitis C virus) was more than 10 µM.

On to `O=C(Nc1cncc(-c2cc(-c3c(F)cccc3C(F)(F)F)no2)c1)C(Cl)Cl` [Compound 37, 2,2-Dichloro-N-[5-[3-(2-fluoro-6-trifluoromethylphenyl)-5-isoxazolyl]-(3-pyridyl)] Acetamide], for which the IC50 at 48 h in data set [2] was not below 10 µM. The IC50 in data set [1] (Hepatitis C virus) was more than 10 µM.

For `COc1cccc(F)c1-c1cc(-c2cc(NC(=O)C(Cl)Cl)ccn2)on1` [Compound 39], the IC50 at 48 h in data set [2] is not below 10 µM.

As to `O=C(Nc1cc[n+]([O-])c(-c2cc(-c3c(Cl)cccc3Cl)no2)c1)C(Cl)Cl` [Compound 43], the IC50 in data set [1] (Hepatitis C virus) was more than 10 µM.

Regarding `CCOC(=O)c1cccnc1-c1cc(-c2cccc(NC(=O)C(Cl)Cl)c2)on1` [Compound 45, 2,2-Dichloro-N-[3-[3-[(3-ethoxycarbonyl)-2-pyridyl]-5-isoxazolyl]phenyl] Acetamide], the IC50 in data set [1] (Hepatitis C virus) is more than 10 µM.

As to `O=C(Nc1ccnc(-c2cc(-c3c(F)cccc3S(=O)(=O)NN3CCOCC3)no2)c1)C(Cl)Cl` [Compound 47], the IC50 in data set [1] was less than 10 µM.

Turning to `CN(C(=O)C(Cl)Cl)c1ccnc(-c2cc(-c3c(Cl)cccc3Cl)no2)c1` [Compound 51, 2,2-Dichloro-N-[2-[3-(2,6-dichlorophenyl)-5-isoxazolyl]-(4-pyridyl)]-N-methyl Acetamide], the IC50 at 48 h in data set [2] is not below 10 µM. In data set [1] (Hepatitis C virus), the IC50 was less than 10 µM.

For `O=C(Nc1ccnc(-c2cc(-c3c(Cl)cccc3N3CCN(c4ccccn4)CC3)no2)c1)C(Cl)Cl` [Compound 53], the IC50 in data set [3] (Hepatitis C virus) and in data set [1] (Hepatitis C virus) was less than 10 µM throughout.

`CCN1CCN(c2cccc(Cl)c2-c2cc(-c3cncc(NC(=O)C(Cl)Cl)c3)on2)CC1` [Compound 63]: the IC50 in data set [1] (Hepatitis C virus) was less than 10 µM.

In the case of `O=C(Nc1ccc(-c2cc(-c3c(Cl)cccc3Cl)no2)cn1)C(Cl)Cl` [Compound 65, 2,2-Dichloro-N-[5-[3-(2,6-dichlorophenyl)-5-isoxazolyl]-(2-pyridyl)] Acetamide], the IC50 in data set [1] was more than 10 µM.

In the case of `O=C(Nc1cncc(-c2cc(-c3ccccc3C(F)(F)F)no2)c1)C(Cl)Cl` [Compound 67, 2,2-Dichloro-N-[5-[3-(2-trifluoromethylphenyl)-5-isoxazolyl]-(3-pyridyl)] Acetamide], in data set [1], the concentration for half-maximal inhibition (IC50) is more than 10 µM.

Consider `O=C(Nc1cncc(-c2cc(-c3c(Cl)cccc3N3CCNCC3)no2)c1)C(Cl)Cl` [Compound 73, 2,2-Dichloro-N-[5-[.3-(2-chloro-6-piperazinophenyl)-5-isoxazolyl]-(3-pyridyl)] Acetamide], for which, in data set [1], the IC50 is less than 10 µM.

For the molecule `CC(C)(C)[Si](C)(C)Oc1cccc(Cl)c1-c1cc(-c2cncc(NC(=O)C(Cl)Cl)c2)on1` [Compound 75, 2,2-Dichloro-N-[5-[3-(2-chloro-6-tert-butyldimethylsilyloxyphenyl)-5-isoxazolyl]-(3-pyridyl)] Acetamide], the IC50 in data set [1] was less than 10 µM.

Take `O=C(Nc1cncc(-c2cc(-c3c(O)cccc3Cl)no2)c1)C(Cl)Cl` [Compound 77, 2,2-Dichloro-N-[5-[3-(2-chloro-6-hydroxyphenyl)-5-isoxazolyl]-(3-pyridyl)] Acetamide]: the IC50 in data set [1] is less than 10 µM.

Turning to `CCNC(=O)Oc1cccc(Cl)c1-c1cc(-c2cncc(NC(=O)C(Cl)Cl)c2)on1` [Compound 79, 2,2-Dichloro-N-[5-[3-(2-chloro-6-N-ethylcarbamoyloxyphenyl)-5-isoxazolyl]-(3-pyridyl)] Acetamide], in data set [1], the IC50 was less than 10 µM.

As for `CC(C)(C)[Si](C)(C)Oc1cccc(Cl)c1-c1cc(-c2cc(NC(=O)C(Cl)Cl)ccn2)on1` [Compound 83, 2,2-Dichloro-N-[2-[3-(2-chloro-6-tert-butyldimethylsilyloxyphenyl)-5-isoxazolyl]-(4-pyridyl)] Acetamide], the IC50 in data set [1] is less than 10 µM.

As to `CCCNC(=O)Oc1cccc(Cl)c1-c1cc(-c2cc(NC(=O)C(Cl)Cl)ccn2)on1` [Compound 85], the IC50 in data set [1] was less than 10 µM.

For the molecule `COCOc1cccc(Cl)c1-c1cc(-c2cc(NC(=O)C(Cl)Cl)ccn2)on1` [Compound 87], the IC50 in data set [1] is less than 10 µM.

As for `O=C(Nc1ccnc(-c2cc(-c3c(O)cccc3Cl)no2)c1)C(Cl)Cl` [Compound 89, 2,2-Dichloro-N-[2-[3-(2-chloro-6-hydioxyphenyl)-5-isoxazolyl]-(4-pyridyl)] Acetamide], the IC50 in data set [1] is less than 10 µM.

Regarding `CN(C)c1nccc(Cl)c1-c1cc(-c2cccc(NC(=O)C(Cl)Cl)c2)on1` [Compound 91, 2,2-Dichloro-N-[3-[3-[(4-chloro-2-dimethylamino)-3-pyridyl]-5-isoxazolyl]phenyl] Acetamide], in data set [1], the IC50 was less than 10 µM.

As for `O=C(Nc1cccc(-c2cc(-c3c(Cl)ccnc3Cl)no2)c1)C(Cl)Cl` [Compound 93, 2,2-Dichloro-N-[3-[3-[(2,4-dichloro)-3-pyridy]-5-isoxazolyl]phenyl] Acetamide], the IC50 in data set [1] was less than 10 µM.

For the molecule `O=C(Nc1ccncc1-c1cc(-c2cccc(Br)n2)no1)C(Cl)Cl` [Compound 97, 2,2-Dichloro-N-[3-[3-[(6-bromo)-2-pyridyl]-5-isoxazolyl]-(4-pyridyl)] Acetamide], the IC50 in data set [1] was more than 10 µM.

One may read the IC50 as the concentration that inhibits the measured activity by half.
